Usually Ki stands for the equilibrium dissociation constant of an inhibitor or competing ligand from its target.

The target of this experiment is Gamma-aminobutyric acid receptor subunit alpha-5 (Rattus norvegicus, UniProt P19969).

Several values for one entry are separate records, joined by “and”; a condition that tells them apart may be missing. Identical values can stand only once.

Chain of Gamma-aminobutyric acid receptor subunit alpha-5 (P19969 whole entry): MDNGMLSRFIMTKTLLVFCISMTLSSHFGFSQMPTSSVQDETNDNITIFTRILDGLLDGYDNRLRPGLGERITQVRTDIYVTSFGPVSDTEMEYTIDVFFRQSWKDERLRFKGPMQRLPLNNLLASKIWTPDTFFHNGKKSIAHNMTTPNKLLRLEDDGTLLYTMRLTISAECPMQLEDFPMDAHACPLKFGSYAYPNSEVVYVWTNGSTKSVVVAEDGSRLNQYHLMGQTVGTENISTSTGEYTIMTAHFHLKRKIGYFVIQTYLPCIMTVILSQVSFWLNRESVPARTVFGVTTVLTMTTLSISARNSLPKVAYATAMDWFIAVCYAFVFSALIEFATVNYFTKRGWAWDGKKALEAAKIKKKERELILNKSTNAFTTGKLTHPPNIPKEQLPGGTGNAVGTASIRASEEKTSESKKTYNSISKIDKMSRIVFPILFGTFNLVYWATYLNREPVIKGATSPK

With `Cc1nnc2ccc(-c3cccc(C(F)(F)F)c3)nn12`, the Ki is 333 nM and 127 nM and 157 nM and 447 nM.

(Values after BindingDB's records for doi:10.1074/jbc.274.19.13370 (SynthÉLabo, 1999).)
